From US9187450B2, “Substituted pyridine compound” (Daiichi Sankyo Company, Limited, priority 2010, dated 2015)

Biological target: recombinant human CETP protein (Homo sapiens (Human), UniProt P11597)
Assay: Test of CETP inhibition activity (in vitro, buffer-based)
Format: biochemical
Conditions: reconstituted HDL with [14C]-labeled cholesteryl ester, acceptor lipoprotein, 37° C.
Description: Test of CETP Inhibition Activity (In Vitro, Buffer-Based)
(1) Preparation of Reconstituted HDL
Cholesterol (1.125 μmol), phosphatidyl choline (4.5 μmol) and [^14C]-labeled cholesteryl ester (2.0 μCi; 40 μl) were taken in a glass test tube and well mixed with a vortex, and dried under a nitrogen gas current so that it formed a thin film. The obtained mixture was dissolved in ethanol (200 μl), which was designated as Solution A. A PBS solution [a mixed solution of Na2HPO4 (30 mM), KH2PO4 (8.8 mM), NaCl (60 mM) and EDTA (pH 7.4; 0.67 mM); 4 ml] was taken in a tube and the reaction solution was vigorously stirred with a vortex under a nitrogen current. The above-described Solution A was gently injected into this mixture with a syringe and the reaction solution was vigorously stirred with a vortex for 5 minutes under a nitrogen current. Sodium cholate ([…]; 0.38 ml) was added to the obtained mixture and the reaction solution was stirred for 2 minutes. ApoA-I protein (3 mg) was added to the obtained mixture and the reaction solution was stirred for 2 minutes. The obtained mixture was adjusted to 5 ml with the PBS solution and then dialyzed with the PBS solution. The obtained mixture was designated as the reconstituted HDL.
(2) Preparation of Acceptor Lipoprotein
NaBr was added to the plasma of a healthy person and the density of the mixture was adjusted to 1.019, and the mixture was subjected to density gradient centrifugation (40000 rpm, for 16 hours) to remove the fraction having a density of less than 1.019. NaBr was added to the obtained mixture and the density of the solution was adjusted to 1.063, and the solution was subjected to density gradient centrifugation (40000 rpm, 18 hours) to provide the fraction consisting of IDL (intermediate density lipoprotein) and LDL (1.019<density<1.063). The obtained fraction was dialyzed with the PBS solution. The obtained mixture was designated as the acceptor lipoprotein.
(3) Measurement of CETP Inhibition Activity
A recombinant human CETP protein (manufactured by Roar Biomedical Inc.; 4.5 ng), the acceptor lipoprotein described in (2) above (32.5 μg) and 5,5′-dithio-bis-(2-nitrobenzoic acid) (7 mM, 15 μl) were taken in a 96 well plate and the total amount of the mixture was adjusted to 48.5 μl with the PBS solution. The test compound [DMSO solution (concentration: 0.15, 0.5, 1.5, 5, 15, 50, 150 and 500 μM; 1.5 μl] was added to each well and the mixture was incubated in a thermostatic bath at 37° C. for 60 minutes. The reconstituted HDL (50 μl) described in (1) above was added to each well and the mixture was reacted in a thermostatic bath at 37° C. for 60 minutes. The 96 well plate was moved onto ice and a precipitation reagent [a mixed solution of magnesium chloride (60 mM) and 0.1% dextran sulfate [1/1 (v/v)]; 15 μl] was added to each well, and then the mixture was allowed to stand on ice for 15 minutes. The reaction solution (80 μl) in each well was moved to a filter plate and centrifuged at 1500 rpm for 1 minute, and the filtrate which passed through the filter was designated as the HDL fraction and the radioactivity thereof was measured with a scintillation counter. The percentage decrease in radioactivity in the case where the test compound was added in comparison with that in case where the test compound was not added was designated as the percentage CETP inhibition. The IC50 value was calculated from the percentage CETP inhibition.

recombinant human CETP protein, sequence (P11597 18-493): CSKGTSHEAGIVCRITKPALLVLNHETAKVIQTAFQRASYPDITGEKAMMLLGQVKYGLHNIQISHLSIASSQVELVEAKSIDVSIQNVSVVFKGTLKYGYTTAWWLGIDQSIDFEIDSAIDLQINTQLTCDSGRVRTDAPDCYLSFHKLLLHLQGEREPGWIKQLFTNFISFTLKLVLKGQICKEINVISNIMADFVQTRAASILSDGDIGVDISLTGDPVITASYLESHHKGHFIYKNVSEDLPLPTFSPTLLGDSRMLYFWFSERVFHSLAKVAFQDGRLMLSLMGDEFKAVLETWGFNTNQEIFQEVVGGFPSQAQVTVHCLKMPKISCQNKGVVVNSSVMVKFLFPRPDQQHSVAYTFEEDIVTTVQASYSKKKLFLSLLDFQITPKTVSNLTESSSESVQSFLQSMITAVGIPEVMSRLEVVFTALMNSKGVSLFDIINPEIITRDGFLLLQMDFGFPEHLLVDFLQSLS

Row | SMILES | IC50 [nM]
1 | CC1(C)Cc2nc(C3CCN(c4ncccn4)CC3)c([C@@H](F)c3ccc(C(F)(F)F)cc3)c(C3CCC(F)(F)CC3)c2[C@@H](O)C1 (single isomer, unassigned) [Example 1, (−)-4-(4,4-Difluorocyclohexyl)-3-{fluoro[4-(trifluoromethyl)phenyl]methyl}-7,7-dimethyl-2-[1-(pyrimidin-2-yl)-piperidin-4-yl]-5,6,7,8-tetrahydroquinolin-5-ol] | 83
2 | COc1cnc(N2CCC(c3nc4c(c(C5CCC(F)(F)CC5)c3[C@@H](F)c3ccc(C(F)(F)F)cc3)[C@@H](O)CC(C)(C)C4)CC2)nc1 (single isomer, unassigned) [Example 3, (−)-4-(4,4-Difluorocyclohexyl)-3-{fluoro[4-(trifluoromethyl)phenyl]methyl}-2-[1-(5-methoxypyrimidin-2-yl)piperidin-4-yl]-7,7-dimethyl-5,6,7,8-tetrahydroquinolin-5-ol] | 51
3 | CC1(C)Cc2nc(C3CCN(c4ncc(O)cn4)CC3)c([C@@H](F)c3ccc(C(F)(F)F)cc3)c(C3CCC(F)(F)CC3)c2[C@@H](O)C1 (single isomer, unassigned) [Example 4, (−)-4-(4,4-Difluorocyclohexyl)-3-{fluoro[4-(trifluoromethyl)phenyl]methyl}-2-[1-(5-hydroxypyrimidin-2-yl)piperidin-4-yl]-7,7-dimethyl-5,6,7,8-tetrahydroquinolin-5-ol] | 73
4 | CC1(C)Cc2nc(C3CCN(c4ncc(N5CCOCC5)cn4)CC3)c([C@@H](F)c3ccc(C(F)(F)F)cc3)c(C3CCC(F)(F)CC3)c2[C@@H](O)C1 (single isomer, unassigned) [Example 5, (−)-4-(4,4-Difluorocyclohexyl)-3-{fluoro[4-(trifluoromethyl)phenyl]methyl}-7,7-dimethyl-2-{1-[5-(morpholin-4-yl)pyrimidin-2-yl]piperidin-4-yl}-5,6,7,8-tetrahydroquinolin-5-ol] | 250
5 | CC1(C)Cc2nc(C3CCN(c4ncc(N5CCCCC5)cn4)CC3)c([C@@H](F)c3ccc(C(F)(F)F)cc3)c(C3CCC(F)(F)CC3)c2[C@@H](O)C1 (single isomer, unassigned) [Example 6, (−)-4-(4,4-Difluorocyclohexyl)-3-{fluoro[4-(trifluoromethyl)phenyl]methyl}-7,7-dimethyl-2-{1-[5-(piperidin-1-yl)pyrimidin-2-yl]piperidin-4-yl}-5,6,7,8-tetrahydroquinolin-5-ol] | 66
6 | CN1CCN(c2cnc(N3CCC(c4nc5c(c(C6CCC(F)(F)CC6)c4[C@@H](F)c4ccc(C(F)(F)F)cc4)[C@@H](O)CC(C)(C)C5)CC3)nc2)CC1 (single isomer, unassigned) [Example 8, (−)-4-(4,4-Difluorocyclohexyl)-3-{fluoro[4-(trifluoromethyl)phenyl]methyl}-7,7-dimethyl-2-{1-[5-(4-methylpiperazin-1-yl)pyrimidin-2-yl]piperidin-4-yl}-5,6,7,8-tetrahydroquinolin-5-ol] | 19
7 | CC1(C)Cc2nc(C3CCN(c4ncc(N5CCSCC5)cn4)CC3)c([C@@H](F)c3ccc(C(F)(F)F)cc3)c(C3CCC(F)(F)CC3)c2[C@@H](O)C1 (single isomer, unassigned) [Example 9, (−)-4-(4,4-Difluorocyclohexyl)-3-{fluoro[4-(trifluoromethyl)phenyl]methyl}-7,7-dimethyl-2-{1-[5-(thiomorpholin-4-yl)pyrimidin-2-yl]piperidin-4-yl}-5,6,7,8-tetrahydroquinolin-5-ol] | 122
8 | CC1(C)Cc2nc(C3CCN(c4ncc(N5CCC(O)CC5)cn4)CC3)c([C@@H](F)c3ccc(C(F)(F)F)cc3)c(C3CCC(F)(F)CC3)c2[C@@H](O)C1 (single isomer, unassigned) [Example 11, (−)-4-(4,4-Difluorocyclohexyl)-3-{fluoro[4-(trifluoromethyl)phenyl]methyl}-2-{1-[5-(4-hydroxypiperidin-1-yl)pyrimidin-2-yl]piperidin-4-yl}-7,7-dimethyl-5,6,7,8-tetrahydroquinolin-5-ol] | 46
9 | CC(C)c1cnc(N2CCC(c3nc4c(c(C5CCC(F)(F)CC5)c3[C@@H](F)c3ccc(C(F)(F)F)cc3)[C@@H](O)CC(C)(C)C4)CC2)nc1 (single isomer, unassigned) [Example 12, 4-(4,4-Difluorocyclohexyl)-3-{fluoro[4-(trifluoromethyl)phenyl]methyl}-7,7-dimethyl-2-{1-[5-(propan-2-yl)pyrimidin-2-yl]piperidin-4-yl}-5,6,7,8-tetrahydroquinolin-5-ol] | 103
10 | CC(C)Oc1cnc(N2CCC(c3nc4c(c(C5CCC(F)(F)CC5)c3[C@@H](F)c3ccc(C(F)(F)F)cc3)[C@@H](O)CC(C)(C)C4)CC2)nc1 (single isomer, unassigned) [Example 14, (−)-4-(4,4-Difluorocyclohexyl)-3-{fluoro[4-(trifluoromethyl)phenyl]methyl}-7,7-dimethyl-2-{1-[5-(propan-2-yloxy)pyrimidin-2-yl]piperidin-4-yl}-5,6,7,8-tetrahydroquinolin-5-ol] | 97
11 | CCCCCc1cnc(N2CCC(c3nc4c(c(C5CCC(F)(F)CC5)c3[C@@H](F)c3ccc(C(F)(F)F)cc3)[C@@H](O)CC(C)(C)C4)CC2)nc1 (single isomer, unassigned) [Example 16, (−)-4-(4,4-Difluorocyclohexyl)-3-{fluoro[4-(trifluoromethyl)phenyl]methyl}-7,7-dimethyl-2-[1-(5-pentylpyrimidin-2-yl)piperidin-4-yl]-5,6,7,8-tetrahydroquinolin-5-ol] | 243
12 | CC1(C)Cc2nc(C3CCN(c4ncc(C#N)cn4)CC3)c([C@@H](F)c3ccc(C(F)(F)F)cc3)c(C3CCC(F)(F)CC3)c2[C@@H](O)C1 (single isomer, unassigned) [Example 17, (−)-2-[1-(5-cyanopyrimidine-2-yl)piperidin-4-yl]-4-(4,4-difluorocyclohexyl)-3-{fluoro[4-(trifluoromethyl)phenyl]methyl}-7,7-dimethyl-5,6,7,8-tetrahydroquinoline-5-ol] | 217
13 | CC1(C)Cc2nc(C3CCN(c4ncc(C5=CCCCC5)cn4)CC3)c([C@@H](F)c3ccc(C(F)(F)F)cc3)c(C3CCC(F)(F)CC3)c2[C@@H](O)C1 (single isomer, unassigned) [Example 18, (−)-2-{1-[5-(Cyclohex-1-ene-1-yl)pyrimidin-2-yl]piperidin-4-yl}-4-(4,4-difluorocyclohexyl)-3-{fluoro[4-(trifluoromethyl)phenyl]methyl}-7,7-dimethyl-5,6,7,8-tetrahydroquinolin-5-ol] | 177
14 | CC1(C)Cc2nc(C3CCN(c4ncc(C5CC5)cn4)CC3)c([C@@H](F)c3ccc(C(F)(F)F)cc3)c(C3CCC(F)(F)CC3)c2[C@@H](O)C1 (single isomer, unassigned) [Example 19, (−)-2-[1-(5-Cyclopropylpyrimidin-2-yl)piperidin-4-yl]-4-(4,4-difluorocyclohexyl)-3-{fluoro[4-(trifluoromethyl)phenyl]methyl}-7,7-dimethyl-5,6,7,8-tetrahydroquinolin-5-ol] | 198
15 | CC(C)COc1cnc(N2CCC(c3nc4c(c(C5CCC(F)(F)CC5)c3[C@@H](F)c3ccc(C(F)(F)F)cc3)[C@@H](O)CC(C)(C)C4)CC2)nc1 (single isomer, unassigned) [Example 21, (−)-4-(4,4-difluorocyclohexyl)-3-{fluoro[4-(trifluoromethyl)phenyl]methyl}-7,7-dimethyl-2-{1-[5-(2-methylpropoxy)pyrimidine-2-yl]piperidin-4-yl}-5,6,7,8-tetrahydroquinoline-5-ol] | 99
16 | CC(C)CCOc1cnc(N2CCC(c3nc4c(c(C5CCC(F)(F)CC5)c3[C@@H](F)c3ccc(C(F)(F)F)cc3)[C@@H](O)CC(C)(C)C4)CC2)nc1 (single isomer, unassigned) [Example 22, (−)-4-(4,4-difluorocyclohexyl)-3-{fluoro[4-(trifluoromethyl)phenyl]methyl}-7,7-dimethyl-2-{1-[5-(3-methylbutoxyl)pyrimidine-2-yl]piperidin-4-yl}-5,6,7,8-tetrahydroquinoline-5-ol] | 111
